Source: PubChem BioAssay (NCI)
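Growth conditions: 96-well plates. Treatment: test compound, 48 hours, 5 concentrations. Analysis: linear interpolation between bracketing concentrations; unreached endpoints set to highest concentration. GI50 marks 50% less growth. TGI: total growth inhibition.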

Legend:
Experiment in all cases: DTP human tumour cell line panel, 48 h
[1] = system: HCT-15 colon
[2] = system: NCI-H522 lung
[3] = system: ACHN renal
[4] = system: MDA-MB-231 breast
[5] = system: A498 renal
[6] = system: A549 NSCLC
[7] = system: UACC-62 melanoma
[8] = system: T-47D breast
[9] = system: SF-539 CNS
[10] = system: NCI-H23 lung
[11] = system: CAKI-1 renal
[12] = system: MDA-MB-435
[13] = system: DU-145 prostate
[14] = system: NCI-H226 lung
[15] = system: OVCAR-8 ovarian
[16] = system: M14 melanoma
[17] = system: SN12C renal
[18] = system: TK-10 renal
[19] = system: OVCAR-3 ovarian
[20] = system: HOP-62 NSCLC
[21] = system: UACC-257 melanoma
[22] = system: HT29 colon
[23] = system: SK-OV-3 ovarian
[24] = system: 786-0 renal
[25] = system: MOLT-4 leukemia
[26] = system: HCT-116 colon
[27] = system: MCF7 breast
[28] = system: BT-549 breast
[29] = system: OVCAR-4 ovarian
[30] = system: SK-MEL-5 melanoma
[31] = system: PC-3 prostate
[32] = system: HCC-2998 colon
[33] = system: U251 CNS
[34] = system: HL-60(TB) leukemia
[35] = system: KM12 colon
[36] = system: SK-MEL-28 melanoma
[37] = system: UO-31 renal
[38] = system: SK-MEL-2 melanoma
[39] = system: COLO 205 colon
[40] = system: MDA-MB-468 breast
[41] = system: SF-295 CNS
[42] = system: MALME-3M melanoma
[43] = system: K-562 leukemia
[44] = system: IGROV1 ovarian
[45] = system: NCI-H460 lung
[46] = system: SF-268 CNS
[47] = system: SW-620 colon
[48] = system: HOP-92 NSCLC
[49] = system: SNB-75 CNS
[50] = system: OVCAR-5 ovarian
[51] = system: RXF 393 renal
[52] = system: HS 578T breast
[53] = system: LOX IMVI melanoma
[54] = system: CCRF-CEM leukemia
[55] = system: EKVX NSCLC
[56] = system: NCI/ADR-RES ovarian
[57] = system: SR leukemia
[58] = system: SNB-19 CNS

COc1ccc(/C=C/C(=O)c2ccc(S(=O)(=O)NCCNc3nc(Nc4ccc(F)cc4)nc(N(C)C)n3)cc2)cc1
GI50 [1]: 2.71 µM
TGI [1]: 7.07 µM
GI50 [2]: 2.55 µM
TGI [2]: 12.5 µM
GI50 [3]: 3.4 µM
TGI [3]: > 100 µM
GI50 [4]: 2.73 µM
TGI [4]: 10.5 µM
GI50 [5]: 10 µM
TGI [5]: 29.7 µM
GI50 [6]: 6.54 µM
TGI [6]: > 100 µM
GI50 [7]: 4.79 µM
TGI [7]: 19.3 µM
GI50 [8]: 3.78 µM
TGI [8]: 89.8 µM
GI50 [9]: 10.3 µM
TGI [9]: 23 µM
GI50 [10]: 10.4 µM
TGI [10]: 50.5 µM
GI50 [11]: 3.34 µM
TGI [11]: > 100 µM
GI50 [12]: 5.47 µM
TGI [12]: 23.4 µM
GI50 [13]: 7.54 µM
TGI [13]: > 100 µM
GI50 [14]: 3.8 µM
TGI [14]: 20.4 µM
GI50 [15]: 9.51 µM
TGI [15]: > 100 µM
GI50 [16]: 4.27 µM
TGI [16]: 19.2 µM
GI50 [17]: 3.6 µM
TGI [17]: 13.3 µM
GI50 [18]: 8.09 µM
TGI [18]: > 100 µM
GI50 [19]: 5.01 µM
TGI [19]: 19.9 µM
GI50 [20]: 17.1 µM
TGI [20]: > 100 µM
GI50 [21]: 13.3 µM
TGI [21]: 38.4 µM
GI50 [22]: 1.83 µM
TGI [22]: 3.73 µM
GI50 [23]: 13.9 µM
TGI [23]: 76.3 µM
GI50 [24]: 6.33 µM
TGI [24]: > 100 µM
GI50 [25]: 3.12 µM
TGI [25]: 13.2 µM
GI50 [26]: 1.86 µM
TGI [26]: 3.62 µM
GI50 [27]: 1.93 µM
TGI [27]: 5.85 µM
GI50 [28]: 13.2 µM
TGI [28]: 27.4 µM
GI50 [29]: 4.12 µM
TGI [29]: > 100 µM
GI50 [30]: 3.5 µM
TGI [30]: 13.2 µM
GI50 [31]: 3.5 µM
TGI [31]: > 100 µM
GI50 [32]: 5.47 µM
TGI [32]: 18 µM
GI50 [33]: 6.7 µM
TGI [33]: 21.5 µM
GI50 [34]: 3.6 µM
TGI [34]: 31.5 µM
GI50 [35]: 4.01 µM
TGI [35]: 16.7 µM
GI50 [36]: 5.23 µM
TGI [36]: 19 µM
GI50 [37]: 3.78 µM
TGI [37]: 99.4 µM
GI50 [38]: 8.1 µM
TGI [38]: 22.3 µM
GI50 [39]: 3.46 µM
TGI [39]: 14.3 µM
GI50 [40]: 2.57 µM
TGI [40]: 10.3 µM
GI50 [41]: 5.05 µM
TGI [41]: 18.7 µM
GI50 [42]: 10.6 µM
TGI [42]: 43.9 µM
GI50 [43]: 3.99 µM
TGI [43]: > 100 µM
GI50 [44]: 10.8 µM
TGI [44]: 45.6 µM
GI50 [45]: 4.11 µM
TGI [45]: 21.6 µM
GI50 [46]: 4.43 µM
TGI [46]: 55.8 µM
GI50 [47]: 5.42 µM
TGI [47]: 19.7 µM
GI50 [48]: 3.25 µM
TGI [48]: 31 µM
GI50 [49]: 3.57 µM
TGI [49]: > 100 µM
GI50 [50]: 8.44 µM
TGI [50]: 45.9 µM
GI50 [51]: 2.59 µM
TGI [51]: 12.3 µM
GI50 [52]: 4.68 µM
TGI [52]: 44.8 µM
GI50 [53]: 3.23 µM
TGI [53]: 11.5 µM
GI50 [54]: 4.09 µM
TGI [54]: > 100 µM
GI50 [55]: 4.12 µM
TGI [55]: 22.3 µM
GI50 [56]: 5.66 µM
TGI [56]: 35.5 µM
GI50 [57]: 2.97 µM
TGI [57]: 13.2 µM
GI50 [58]: 5.58 µM
TGI [58]: 45.5 µM
